# Measurements: BindingDB's records for doi:10.1074/jbc.M512374200 (German Cancer Research Center, 2006)
# Columns and labels:
# [1] = target: T1, Rho-associated protein kinase 2 (Bos taurus, UniProt Q28021); experiment: Kinase Inhibition Assay
# Experimental: The kinase activity was determined by incubation of enzyme and its substrate, and test compound, in the presence ATP/[gamma-33P] ATP. After incubation, the reaction was stopped, and the 33P-phosphorylated substrate was determined by scintillation counting.
# [2] = target: T1, Rho-associated protein kinase 2; experiment: Kinase Activity Assay
# Experimental: (§1) The enzyme activity was assayed by using an ATP regenerative NADH consuming system. The reaction was started with adding ATP to the mixture containing enzyme, substrate, and inhibitor. The decrease of NADH was time-dependent, and was measured at 340 nm with three independent measurements per data point. IC50 values were calculated using SigmaPlot 8.0 and Origin 5 software.
# [3] = target: cAMP-dependent protein kinase catalytic subunit alpha [T183A] (Bos taurus, UniProt P00517, T183A); experiment: Kinase Activity Assay
# Experimental: as §1
# [4] = target: cAMP-dependent protein kinase catalytic subunit alpha [V123M,Q181K,T183A] (Bos taurus, UniProt P00517, Q181K/T183A/V123M); experiment: Kinase Activity Assay
# Experimental: as §1
# [5] = target: cAMP-dependent protein kinase catalytic subunit alpha [L49I] (Bos taurus, UniProt P00517, L49I); experiment: Kinase Activity Assay; conditions: pH 6.8; 25 °C
# Experimental: as §1
# [6] = target: cAMP-dependent protein kinase catalytic subunit alpha [V123M] (Bos taurus, UniProt P00517, V123M); experiment: Kinase Activity Assay; conditions: pH 6.8; 25 °C
# Experimental: as §1
# [7] = target: cAMP-dependent protein kinase catalytic subunit alpha [L49I,T183A] (Bos taurus, UniProt P00517, L49I/T183A); experiment: Kinase Activity Assay
# Experimental: as §1
# [8] = target: cAMP-dependent protein kinase catalytic subunit alpha [L49I,V123M,Q181K,T183A] (Bos taurus, UniProt P00517, L49I/Q181K/T183A/V123M); experiment: Kinase Activity Assay
# Experimental: as §1
# [9] = target: cAMP-dependent protein kinase catalytic subunit alpha [L49I,V123M,E127D,Q181K,T183A] (Bos taurus, UniProt P00517, E127D/L49I/Q181K/T183A/V123M); experiment: Kinase Activity Assay
# Experimental: as §1
# [10] = target: cAMP-dependent protein kinase catalytic subunit alpha [Q181K,T183A] (Bos taurus, UniProt P00517, Q181K/T183A); experiment: Kinase Activity Assay
# Experimental: as §1
# [11] = target: cAMP-dependent protein kinase catalytic subunit alpha [L49I,Q181K,T183A] (Bos taurus, UniProt P00517, L49I/Q181K/T183A); experiment: Kinase Activity Assay
# Experimental: as §1
# [12] = target: cAMP-dependent protein kinase catalytic subunit alpha (Bos taurus, UniProt P00517); experiment: Kinase Activity Assay; conditions: pH 6.8; 25 °C
# Experimental: as §1
# [13] = target: cAMP-dependent protein kinase catalytic subunit alpha [E127D] (Bos taurus, UniProt P00517, E127D); experiment: Kinase Activity Assay
# Experimental: as §1
# [14] = target: cAMP-dependent protein kinase catalytic subunit alpha [V123M,T183A] (Bos taurus, UniProt P00517, T183A/V123M); experiment: Kinase Activity Assay
# Experimental: as §1
# T1 sequence (Q28021 whole entry): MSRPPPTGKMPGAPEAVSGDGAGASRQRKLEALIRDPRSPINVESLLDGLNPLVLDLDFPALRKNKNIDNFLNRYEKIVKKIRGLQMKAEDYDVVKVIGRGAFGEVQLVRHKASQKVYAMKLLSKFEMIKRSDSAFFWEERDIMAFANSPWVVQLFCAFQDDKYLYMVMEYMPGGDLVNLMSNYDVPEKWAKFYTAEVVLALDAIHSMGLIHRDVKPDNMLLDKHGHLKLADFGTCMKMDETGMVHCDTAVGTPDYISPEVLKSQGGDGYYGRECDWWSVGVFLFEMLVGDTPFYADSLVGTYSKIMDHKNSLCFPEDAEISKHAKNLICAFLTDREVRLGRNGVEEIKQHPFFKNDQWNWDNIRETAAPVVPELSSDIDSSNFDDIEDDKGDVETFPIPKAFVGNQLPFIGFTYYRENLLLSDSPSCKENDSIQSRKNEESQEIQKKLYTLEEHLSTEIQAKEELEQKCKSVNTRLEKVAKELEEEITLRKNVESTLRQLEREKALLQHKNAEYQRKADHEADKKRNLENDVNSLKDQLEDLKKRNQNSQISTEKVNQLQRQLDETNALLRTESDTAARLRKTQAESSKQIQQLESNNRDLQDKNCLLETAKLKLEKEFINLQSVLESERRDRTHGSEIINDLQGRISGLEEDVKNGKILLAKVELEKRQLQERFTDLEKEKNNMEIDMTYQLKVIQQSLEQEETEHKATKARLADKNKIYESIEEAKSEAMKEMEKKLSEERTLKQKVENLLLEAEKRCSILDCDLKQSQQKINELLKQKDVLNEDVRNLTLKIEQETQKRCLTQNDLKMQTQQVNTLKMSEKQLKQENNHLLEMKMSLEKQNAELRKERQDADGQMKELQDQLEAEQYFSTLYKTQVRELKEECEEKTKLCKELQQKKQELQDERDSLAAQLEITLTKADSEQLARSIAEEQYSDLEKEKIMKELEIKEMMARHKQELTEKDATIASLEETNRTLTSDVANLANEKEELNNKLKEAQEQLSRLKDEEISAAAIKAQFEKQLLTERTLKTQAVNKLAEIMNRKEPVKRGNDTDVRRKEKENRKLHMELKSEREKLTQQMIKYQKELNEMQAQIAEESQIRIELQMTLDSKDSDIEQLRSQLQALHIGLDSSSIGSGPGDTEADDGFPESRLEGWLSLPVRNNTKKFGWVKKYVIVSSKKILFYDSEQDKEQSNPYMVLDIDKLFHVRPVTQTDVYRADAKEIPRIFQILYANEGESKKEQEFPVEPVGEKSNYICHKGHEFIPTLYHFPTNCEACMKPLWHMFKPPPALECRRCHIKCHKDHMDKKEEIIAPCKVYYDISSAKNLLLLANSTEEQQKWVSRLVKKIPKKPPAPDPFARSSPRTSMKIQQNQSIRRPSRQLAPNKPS
SMILES,IC50 [1] [nM],IC50 [2] [nM],IC50 [3] [nM],IC50 [4] [nM],IC50 [5] [nM],IC50 [6] [nM],IC50 [7] [nM],IC50 [8] [nM],IC50 [9] [nM],IC50 [10] [nM],IC50 [11] [nM],IC50 [12] [nM],IC50 [13] [nM],IC50 [14] [nM]
CN[C@@H]1C[C@H]2O[C@@](C)([C@@H]1OC)n1c3ccccc3c3c4c(c5c6ccccc6n2c5c31)C(=O)NC4,1.2,–,–,–,–,–,–,–,–,–,–,–,–,–
C[C@@H](N)[C@H]1CC[C@H](C(=O)Nc2ccncc2)CC1 [4-[(1R)-1-aminoethyl]-N-(pyridin-4-yl)cyclohexane-1-carboxamide],–,500,9000,25000,28000,60000,12000,18000,6000,9000,6000,42000,16000,31000
O=S(=O)(c1cccc2cnccc12)N1CCCNCC1 [AT877],–,485,–,–,–,–,–,–,–,–,–,–,–,–
Cc1cncc2cccc(S(=O)(=O)N3CCCNC[C@@H]3C)c12 [H-1152],–,< 45,109,223,426,1520,–,89,–,109,–,394,493,293
"CCCCCCOC(=O)[C@]1(O)C[C@@H]2O[C@@]1(C)n1c3ccccc3c3c4c(c5c6ccccc6n2c5c31)C(=O)NC4 [hexyl (15R,16S,18S)-16-hydroxy-15-methyl-3-oxo-28-oxa-4,14,19-triazaoctacyclo[12.11.2.1^{15,18}.0^{2,6}.0^{7,27}.0^{8,13}.0^{19,26}.0^{20,25}]octacosa-1(26),2(6),7(27),8(13),9,11,20(25),21,23-nonaene-16-carboxylate]",–,1800,< 45,68,10300,222,–,2010,1300,< 45,5540,56,1820,–
